“Also recorded” adds a separate entry of the source.
Experiments:
[1] = test system: MT-4 cells; conditions: 100 ng/ml and concentrations up to 1,000-fold higher
Description: MT-4 T lymphocytes (5×10^4 cells/ml) were seeded in 96well plates and exposed to IIIB strain of HIV-1 (at MOI equal to 100 infectious doses) in the presence of ten-fold, serial dilutions of hCG peptides (range 100 mcg-1 ng per ml). […] The tests were repeated three times with duplicates for each dilution of an individual peptide. All cultures were grown in RPMI-1640/10% FBS medium supplemented witi L-glutamine and penicillin/streptomycin. The culture plates were kept in a humidified incubator with 5% CO2 at 37° C. […] This difference in the survival pattern, indicative of the antiviral activity, was quantitated by tetrazolium salt XTT assay. This assay is based on the rationale that the viability of MT-4 correlates directly with the activity of mitochondrial hydrogenases converting XTT into optically dense formazan dye. […] At the appropriate time 1 mg/ml of XTT (Sigma, St Louis, Mo.) was nixed with 1% w/v phenazine methosulfate (Aldrich, Milwaukee, Wis.) and 20 mcl of the mixture was added to the wells for 4 hours. The optical density of formazan was then determined in a plate reader at 450 nm with reference filter at 620 nm. The proportion of surviving MT-4 cells treated with hCG peptides was calculated as a function of the viability of mock-infected cells in relation to positive control wells containing untreated cells dead from exposure to HIV.

[2] = test system: IIIB strain of HIV-1; test: Anti-HIV effect: protection of MT-4 T lymphocytes from HIV-caused cell death (XTT assay); format: cell-based; conditions: MT-4, HIV-1 IIIB, 100 mcg-1 ng per ml, 5-7 days
Description: Viability=100%×[(ODT)-(ODD)]/[(ODM)-(ODD)]
Where ODT is optical density values of culture wells treated with test peptides; ODM optical density of mock-infected cells; ODD light absorbance values of untreated cells dead from exposure to HIV.
The serial ten-fold dilutions (100 mcg-1 ng per ml) of 6 different synthetic peptides representing N-terminal and core region of hCG were tested for their effect on HIV replication (FIG. 1). […] In these experiments the viability of MT4 was determined after 5-7 days of continuous presence of the virus and hCG peptide fragment in the target cell culture.

Compound | toxicity to cells employed in the assay [1] | anti-HIV effect (in words) [2]
CC[C@H](C)[C@H](NC(=O)[C@@H]1CCCN1C(=O)[C@@H](NC(=O)[C@H](CC(=O)O)NC(=O)[C@H](CO)NC(=O)[C@@H]1CCCN1C(=O)CNC(=O)[C@@H]1CCCN1C(=O)[C@H](CC(C)C)NC(=O)[C@H](CCCNC(=N)N)NC(=O)[C@H](CO)NC(=O)[C@@H]1CCCN1C(=O)[C@H](CO)NC(=O)[C@@H]1CCCN1C(=O)[C@H](CC(C)C)NC(=O)[C@H](CO)NC(=O)[C@@H]1CCCN1C(=O)[C@@H]1CCCN1C(=O)[C@@H]1CCCN1C(=O)[C@H](C)NC(=O)[C@H](CCCCN)NC(=O)[C@H](CO)NC(=O)[C@H](CO)NC(=O)[C@H](CO)NC(=O)[C@H](CO)NC(=O)[C@H](CC(=O)O)NC(=O)[C@H](CCC(N)=O)NC(=O)[C@H](Cc1ccccc1)NC(=O)[C@H](CCCNC(=N)N)NC(=O)[C@@H]1CCCN1C(=O)[C@H](CC(=O)O)NC(=O)[C@H](CC(=O)O)NC(=O)[C@H](CS)NC(=O)[C@@H](NC(=O)[C@H](CC(C)C)NC(=O)[C@@H]1CCCN1C(=O)[C@@H](N)Cc1c[nH]cn1)[C@@H](C)O)[C@@H](C)O)C(=O)N[C@@H](CC(C)C)C(=O)N1CCC[C@H]1C(=O)N[C@@H](CCC(N)=O)C(=O)O [CTP of hCG] | not toxic | 
C100 GGPKDHPLTC110 DD (CGGPKDHPLTCDD) [compound 7] |  | active; also recorded: restricted effect
K20 EGCPVCITVN30 TT (KEGCPVCITVNTT) [peptide #1] |  | active at nanogram doses
